Test results as given in the supplement of paper PMC10307832.

What was measured:
Experiment in all cases: relative viability (nuclei count vs DMSO), 5 days (fraction); higher = more cells survive
Tozasertib + Lapatinib = compound: Cc1cc(Nc2cc(N3CCN(C)CC3)nc(Sc3ccc(NC(=O)C4CC4)cc3)n2)n[nH]1 [Tozasertib] + CS(=O)(=O)CCNCc1ccc(-c2ccc3ncnc(Nc4ccc(OCc5cccc(F)c5)c(Cl)c4)c3c2)o1 [Lapatinib] (partner 2 µM)
Method in brief: (§1)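 After 5 days of treatment, lung cancer cells in 1536-well plates were fixed and stained in a single step (final 0.05% Triton X-100, 1% formaldehyde, 1 ug/ml Hoechst) and their nuclei counted on 4× images. Treatment had been applied by pin tool the day after seeding as one drug alone or as a fixed anchor-drug dose with five library-drug doses (not always all listed) in √10 steps. Relative viability is the nuclei count of treated wells divided by that of vehicle wells, and values are medians of duplicate plates.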

Tozasertib + Alpelisib = compound: Cc1cc(Nc2cc(N3CCN(C)CC3)nc(Sc3ccc(NC(=O)C4CC4)cc3)n2)n[nH]1 [Tozasertib] + Cc1nc(NC(=O)N2CCC[C@H]2C(N)=O)sc1-c1ccnc(C(C)(C)C(F)(F)F)c1 [Alpelisib] (partner 2 µM)
Method in brief: as §1

Tozasertib + Pictilisib = compound: Cc1cc(Nc2cc(N3CCN(C)CC3)nc(Sc3ccc(NC(=O)C4CC4)cc3)n2)n[nH]1 [Tozasertib] + CS(=O)(=O)N1CCN(Cc2cc3nc(-c4cccc5[nH]ncc45)nc(N4CCOCC4)c3s2)CC1 [Pictilisib] (partner 1 µM)
Method in brief: as §1

Tozasertib + AZD7762 = compound: Cc1cc(Nc2cc(N3CCN(C)CC3)nc(Sc3ccc(NC(=O)C4CC4)cc3)n2)n[nH]1 [Tozasertib] + NC(=O)Nc1cc(-c2cccc(F)c2)sc1C(=O)N[C@H]1CCCNC1 [AZD7762] (partner 0.2 µM)
Method in brief: as §1

Cell Line	relative viability (Tozasertib + Lapatinib; first compound 0.004 µM)	relative viability (Tozasertib + Lapatinib; first compound 0.01265 µM)	relative viability (Tozasertib + Lapatinib; first compound 0.04 µM)	relative viability (Tozasertib + Lapatinib; first compound 0.1265 µM)	relative viability (Tozasertib + Alpelisib; first compound 0.01265 µM)	relative viability (Tozasertib + Alpelisib; first compound 0.04 µM)	relative viability (Tozasertib + Alpelisib; first compound 0.1265 µM)	relative viability (Tozasertib + Pictilisib; first compound 0.004 µM)	relative viability (Tozasertib + Pictilisib; first compound 0.01265 µM)	relative viability (Tozasertib + Pictilisib; first compound 0.04 µM)	relative viability (Tozasertib + Pictilisib; first compound 0.1265 µM)	relative viability (Tozasertib + Alpelisib; first compound 0.004 µM)	relative viability (Tozasertib + AZD7762; first compound 0.004 µM)	relative viability (Tozasertib + AZD7762; first compound 0.01265 µM)	relative viability (Tozasertib + AZD7762; first compound 0.04 µM)	relative viability (Tozasertib + AZD7762; first compound 0.1265 µM)
COR-L 105	0.358	0.365	0.335	0.262	1.29	1.32	0.739	0.434	0.511	0.412	0.267	–	–	–	–	–
NCI-H2023	0.796	1.01	0.947	0.123	0.541	0.539	0.628	0.306	0.287	0.296	0.0957	0.645	–	–	–	–
EPLC-272H	0.958	–	0.891	–	0.789	1.11	–	0.442	0.31	0.326	–	0.845	0.147	0.249	0.192	0.301
BEN	0.73	0.886	0.696	0.577	0.948	1.14	0.931	0.56	0.575	0.66	0.456	1.04	0.761	0.678	–	0.532
NCI-H1395	1.29	0.818	1.04	0.572	1.04	0.914	0.753	0.657	0.528	0.604	0.469	1.15	0.385	0.414	0.389	0.397
LCLC-103H	–	–	–	–	0.895	0.952	0.994	0.694	0.568	0.634	0.498	0.817	0.724	0.842	0.846	0.732
A-427	1.09	–	1.04	0.824	1.1	1.17	0.751	0.676	0.585	0.814	0.168	1.06	0.796	0.799	0.715	0.409
ChaGo-K-1	–	–	–	–	–	–	–	0.849	0.676	0.771	0.256	–	0.902	0.851	0.859	0.576
NCI-H1650	0.914	0.712	0.879	0.168	–	–	–	0.589	0.557	0.639	0.204	–	–	–	–	–
SK-LU-1	1.25	1.06	1.08	0.651	1.02	1.19	0.561	0.71	0.508	0.639	0.458	1.27	–	–	–	–
NCI-H522	–	–	–	–	–	–	–	–	–	–	–	–	–	0.841	0.772	0.47
LU99A	1.07	0.749	0.742	0.467	0.507	0.463	0.267	0.338	0.339	0.3	0.216	0.648	0.314	0.328	0.306	0.169
NCI-H2170	0.271	0.288	0.278	0.251	0.769	0.838	0.679	0.3	0.327	0.295	0.276	0.721	0.81	0.893	0.848	0.788
HCC-44	1.06	1.02	1.06	0.862	0.773	0.836	–	0.596	0.603	0.67	0.409	0.779	1.05	0.994	0.929	0.845
UMC-11	1.03	0.944	1.04	0.244	0.968	1.13	0.146	1.09	0.788	0.864	0.463	1.08	–	–	–	–
201T	1	0.981	1.05	0.884	0.968	1.06	1	0.716	0.581	0.709	0.537	0.993	0.549	0.63	0.581	0.75
NCI-H2009	1.01	0.512	0.885	0.361	1.17	1.15	1.14	0.851	0.79	–	0.552	1.18	–	–	–	–
NCI-H1734	1.06	–	–	0.497	0.64	–	0.469	0.528	0.494	0.518	0.401	0.656	0.506	0.559	0.532	0.228
HCC-15	0.992	0.852	0.92	0.751	0.841	–	0.728	0.702	0.653	0.802	0.585	0.942	1.49	1.06	1.26	0.964
NCI-H1437	0.782	0.74	0.759	0.329	0.866	1.01	0.92	0.479	0.385	0.448	0.318	–	1.14	1.16	1.01	1.14
NCI-H1563	0.922	0.967	0.875	–	0.794	0.94	0.874	0.61	0.641	0.684	0.53	0.944	–	–	–	–
NCI-H2085	0.784	0.715	0.774	0.446	0.963	0.873	0.804	0.454	0.421	0.486	0.266	0.999	0.928	0.906	0.971	0.929
NCI-H2126	0.794	0.805	–	0.567	0.748	0.806	0.769	0.505	0.529	0.532	0.426	0.819	1.01	–	1.05	1.02
SW 1573	1.03	1.23	1.21	1.05	0.674	0.615	0.702	0.541	0.541	0.546	0.293	0.751	–	–	–	–
EKVX	0.189	0.167	0.227	0.185	0.846	1.01	0.878	0.383	0.443	0.527	0.348	0.779	0.703	0.584	0.572	0.236
